Laboratory results from ChEMBL document CHEMBL1134180, “Synthesis and biological evaluation of DNA targeting flexible side-chain substituted beta-carboline derivatives” (Bioorg Med Chem Lett, 2001).

How the values were obtained:
HeLa = assay: Inhibitory concentration against Hella cancer cell lines was determined.; format: functional, cell-based; settings: Homo sapiens
HL-60 = assay: Inhibitory concentration against Human leukemia cancer cell (HL-60)lines was determined.; format: functional, cell-based
KB = assay: Inhibitory concentration against KB cancer cell lines was determined.; format: functional, cell-based; settings: Homo sapiens
BGC-823 = assay: Inhibitory concentration against Human Gastric cancer cell (BGC)lines was determined.; format: functional, cell-based; settings: BGC-823, Stomach
Homo sapiens = organism: Homo sapiens; assay: Inhibitory concentration against Human Gastric cancer cell (BGC) lines was determined.; format: functional; settings: Stomach

SMILES | IC50 (HeLa) | IC50 (HL-60) | IC50 (KB) | IC50 (BGC-823) | IC50 (Homo sapiens)
CN(C)CCCCNC(=O)c1cc2c3ccccc3nc-2c[nH]1 | 140 µM |  |  |  | 
NCCCCCCNC(=O)c1cc2c3ccccc3nc-2c[nH]1 |  | 510 µM |  |  | 
NCCNC(=O)c1cc2c3ccccc3nc-2c[nH]1 |  | 81 µM | 140 µM |  | 
CCN(CC)CCNC(=O)c1cc2c3ccccc3nc-2c[nH]1 |  | 130 µM | 250 µM | 98 µM | 
NCCCCNC(=O)c1cc2c(cn1)[nH]c1ccccc12 |  | 1.9 µM | 4.1 µM | 8.6 µM | 
O=c1[nH]cc(F)c(=O)[nH]1 [FLUOROURACIL] | 1.6 µM | 1 µM | 3.5 µM |  | 68 µM
